Results taken from patent US9801845B2 (priority 2015, dated 2017).
Positions of bridges follow the written chain, without caps; N, C: chain ends. Non-standard residues stand in square brackets, D forms with d. Residues, ends and D or L forms follow the SMILES beside them. *: point of attachment. Ileψ(thiazoline)Cys = CC[C@H](C)[C@H](N)C1=N[C@H](C(=O)*)CS1; dOrn = NCCC[C@@H](N)C(=O)O

How the values were obtained:
C. perfringens [1] = type: cell-based, Clostridium perfringens; conditions: TSA-thioglycolate broth, 250 μL of 2% w/v, overnight, anaerobic
C. perfringens [2] = type: cell-based, Clostridium perfringens; conditions: FIG. 2

For `CC[C@H](C)[C@H](N)C1=N[C@H](C(=O)N[C@@H](CC(C)C)C(=O)N[C@H](CCC(=O)O)C(=O)N[C@H](C(=O)N[C@H]2CCCCNC(=O)[C@H](CC(N)=O)NC(=O)[C@@H](CC(=O)O)NC(=O)[C@H](Cc3cnc[nH]3)NC(=O)[C@@H](Cc3ccccc3)NC(=O)[C@H]([C@@H](C)CC)NC(=O)[C@@H](CCCN)NC2=O)[C@@H](C)CC)CS1` [Bacitracin] ({Ileψ(thiazoline)Cys}-L[dE]IK[dOrn]I[dF]H[dD]N; lactam 4-C), the “inhibition of C. perfringens growth (counts)” value (C. perfringens [1]) was “complete inhibition”, the “inhibition of the growth of C. perfringens, crop assay” value (C. perfringens [2]; crop supernatant pH 5.34, 250 μL of 2% w/v, 24 h) was “complete inhibition” and the “reduction of C. perfringens, ileal assay (in words)” value (C. perfringens [2]; ileal supernatant pH 7.01, 24 h) was “almost complete reduction”. For the same compound, the “effectiveness against C. perfringens, proventricular assay” value (C. perfringens [2]; proventricular supernatant pH 2.54, 250 μL of 2% w/v, 24 h) was “not effective”.
